Measurements reported in publication PMC6397271 (Scientific Reports, 2019).
In brackets after ≈: the same amount, converted by molar mass. Several values for one entry are separate records, joined by “and”; a condition that tells them apart may be missing. Identical values can stand only once. Like-named read-outs stand apart in the source and are kept apart here.

Tests used:
[1] = system: Enterococcus faecalis 3937158; assay: microbe, parasite or virus in culture; assay type: cell-based
How it was run: (§1)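 Broth microdilution MIC, resazurin read-out, n=3. Media: cation-adjusted MH broth for MRSA (N315 reference; 6347 clinical h-VISA), BHI broth for enterococci. Growth aerobic, 37 °C, 24 h; inocula titrated by CFU/ml plating.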

[2] = system: Enterococcus faecium 3934825; assay: microbe, parasite or virus in culture; assay type: cell-based
How it was run: as §1

[3] = Brain concentration by LC/MS after iv administration; assay type: in vivo, BALB/c male mice; details: iv tail vein, 60 mg/kg, 2 hours after administration, brain homogenate supernatant, UHPLC-ESI/MS SIM; Mean ± SD, ten mice; 60 mg/kg
Description: In vivo experiments were performed on BALB/c male mice weighing between 20 and 30 g (the mouse model is widely used for estimation of drug BBB penetration). The animals (obtained from TAZD-CBU) were kept in a 12-hour day and night cycle at room temperature (20–22 °C), humidity 55–56% and fed with a standard diet and water ad libitum for at least 1 week before the experiment. Body temperature and weight were recorded on a regular daily schedule. It is confirmed that all procedures were carried out according to the guidelines outlined by the European Community Council Directive 2010/63/EEC, and they were approved by the local Ethical Committee Resolution 26/2014 (Bydgoszcz, Poland).
The experiments in this section also involved the mouse model described above. […] Similarly to what was stated previously, the mice were sacrificed 2 hours after the administration of the compounds. Their brains were removed immediately from the cranium and weighed. Next, they were homogenized mechanically in the ice and frozen at −80 °C.
Each homogenized mouse brain was centrifuged at 15 000 × g for 10 min. The supernatant was diluted with deionised water (Millipore), filtered (PTFE 0.22 μm filter) and analyzed by UHPLC-ESI/MS with the use of Shimadzu Nexera X2 UHPCL chromatograph and Shimadzu LCMS-2020 mass detector. […]

[4] = system: intracellular MRSA 12673 strain in HEK293 cells; assay: Intracellular antimicrobial (infection) assay; assay type: cell-based, Staphylococcus aureus
Description: HEK293 (human embryonic kidney) cells were purchased form Cell Line Services (Germany). The cells were cultured in Dulbecco’s Modified Eagle’s (DMEM) medium with 4.5 g/l glucose (Sigma-Aldrich, Germany), supplemented with 10% fetal bovine serum (FBS, Sigma-Aldrich, Germany) and 1% PEN/STREP (Sigma-Aldrich, Germany). Cells were maintained in a 5% CO2 incubator at 37 °C. The original lines were checked for the presence of mycoplasma.
HEK293 cells were seeded at a density of 1.5 × 10^5 cells/well in 24-well plates in an antibiotic-free medium (DMEM + 10% FBS) and were allowed to adhere overnight. Next, the medium was removed and overnight culture of S. aureus strain (12673) suspended in DMEM + 1% FBS (invasive medium) at a ratio of bacteria/cells 25:1 was added. To enable bacterial invasion, the cells were incubated with bacterial suspensions (37 °C, 5% CO2) for 2 h.
After this period of time extracellular bacteria were eliminated by a 30 min incubation with 20 U/ml lysostaphin. […] The lysis of human cells was carried out with 0.2% Trition-X-100 (Sigma-Aldrich, Germany). The obtained cell lysates were serially diluted in PBS and plated on agar plates and CFU/ml was determined.
The results are presented as the percentage of S. aureus intracellular survival after treatment in comparison to that of non-treated cells (control). The assay was performed in triplicates.

[5] = microbroth dilution, 96-well, resazurin, 37 °C, 24 h, mean ± SD, at least three independent experiments in triplicates, listed as Van-HCl
[6] = same test as μM value, mean ± SD

SMILES: CN[C@H](CC(C)C)C(=O)N[C@H]1C(=O)N[C@@H](CC(N)=O)C(=O)N[C@H]2C(=O)N[C@H]3C(=O)N[C@H](C(=O)N[C@H](C(=O)O)c4cc(O)cc(O)c4-c4cc3ccc4O)[C@H](O)c3ccc(c(Cl)c3)Oc3cc2cc(c3O[C@@H]2O[C@H](CO)[C@@H](O)[C@H](O)[C@H]2O[C@H]2C[C@](C)(N)[C@H](O)[C@H](C)O2)Oc2ccc(cc2Cl)[C@H]1O [Van, vancomycin, reference compound]
- MIC ([1]; Enterococcus faecalis, 3937158, 24 h, microbroth dilution, 96-well, resazurin, 37 °C, 24 h, mean ± SD, at least three independent experiments in triplicates, read-out: MIC): 25 µM (≈ 36.2 µg/mL)
- MIC ([1]; Enterococcus faecalis, 3937158, raw MIC, first block, test a, repetition 1, read-out: MIC1a): 25 µM (≈ 36.2 µg/mL)
- MIC ([1]; Enterococcus faecalis, 3937158, raw MIC, first block, test a, repetition 2, read-out: MIC2a): 25 µM (≈ 36.2 µg/mL)
- MIC ([1]; Enterococcus faecalis, 3937158, raw MIC, first block, test a, repetition 3, read-out: MIC3a): 12.5 µM (≈ 18.1 µg/mL)
- MIC ([1]; Enterococcus faecalis, 3937158, raw MIC, first block, test b, repetition 1, read-out: MIC1b): 25 µM (≈ 36.2 µg/mL)
- MIC ([1]; Enterococcus faecalis, 3937158, raw MIC, first block, test b, repetition 2, read-out: MIC2b): 25 µM (≈ 36.2 µg/mL)
- MIC ([1]; Enterococcus faecalis, 3937158, raw MIC, first block, test b, repetition 3, read-out: MIC3b): 12.5 µM (≈ 18.1 µg/mL)
- MIC ([1]; Enterococcus faecalis, 3937158, raw MIC, test a, repetition 1, read-out: MIC1a): 37.1 µM (≈ 53.8 µg/mL)
- MIC ([1]; Enterococcus faecalis, 3937158, raw MIC, test a, repetition 2, read-out: MIC2a): 37.1 µM (≈ 53.8 µg/mL)
- MIC ([1]; Enterococcus faecalis, 3937158, raw MIC, test a, repetition 3, read-out: MIC3a): 18.6 µM (≈ 26.9 µg/mL)
- MIC ([1]; Enterococcus faecalis, 3937158, raw MIC, test b, repetition 1, read-out: MIC1b): 37.1 µM (≈ 53.8 µg/mL)
- MIC ([1]; Enterococcus faecalis, 3937158, raw MIC, test b, repetition 2, read-out: MIC2b): 37.1 µM (≈ 53.8 µg/mL)
- MIC ([1]; Enterococcus faecalis, 3937158, raw MIC, test b, repetition 3, read-out: MIC3b): 18.6 µM (≈ 26.9 µg/mL)
- MIC [1, 5]: 25.0 ± 6.5 µM (≈ 36.2 µg/mL)
- MIC in (μg/ml) [1, 6]: 37.1 ± 9.6 µg/mL (≈ 25.6 µM)
- MIC ([2]; Enterococcus faecium, 3934825, 24 h, microbroth dilution, 96-well, resazurin, 37 °C, 24 h, mean ± SD, at least three independent experiments in triplicates, read-out: MIC): 25 µM (≈ 36.2 µg/mL)
- MIC ([2]; Enterococcus faecium, 3934825, raw MIC, first block, test a, repetition 1, read-out: MIC1a): 25 µM (≈ 36.2 µg/mL)
- MIC ([2]; Enterococcus faecium, 3934825, raw MIC, first block, test a, repetition 2, read-out: MIC2a): 25 µM (≈ 36.2 µg/mL)
- MIC ([2]; Enterococcus faecium, 3934825, raw MIC, first block, test a, repetition 3, read-out: MIC3a): 12.5 µM (≈ 18.1 µg/mL)
- MIC ([2]; Enterococcus faecium, 3934825, raw MIC, first block, test b, repetition 1, read-out: MIC1b): 12.5 µM (≈ 18.1 µg/mL)
- MIC ([2]; Enterococcus faecium, 3934825, raw MIC, first block, test b, repetition 2, read-out: MIC2b): 25 µM (≈ 36.2 µg/mL)
- MIC ([2]; Enterococcus faecium, 3934825, raw MIC, first block, test b, repetition 3, read-out: MIC3b): 25 µM (≈ 36.2 µg/mL)
- MIC ([2]; Enterococcus faecium, 3934825, raw MIC, test a, repetition 1, read-out: MIC1a): 37.1 µM (≈ 53.8 µg/mL)
- MIC ([2]; Enterococcus faecium, 3934825, raw MIC, test a, repetition 2, read-out: MIC2a): 37.1 µM (≈ 53.8 µg/mL)
- MIC ([2]; Enterococcus faecium, 3934825, raw MIC, test a, repetition 3, read-out: MIC3a): 37.1 µM (≈ 53.8 µg/mL)
- MIC ([2]; Enterococcus faecium, 3934825, raw MIC, test b, repetition 1, read-out: MIC1b): 18.6 µM (≈ 26.9 µg/mL)
- MIC ([2]; Enterococcus faecium, 3934825, raw MIC, test b, repetition 2, read-out: MIC2b): 37.1 µM (≈ 53.8 µg/mL)
- MIC ([2]; Enterococcus faecium, 3934825, raw MIC, test b, repetition 3, read-out: MIC3b): 37.1 µM (≈ 53.8 µg/mL)
- MIC [2, 5]: 25.0 ± 6.5 µM (≈ 36.2 µg/mL)
- MIC in (μg/ml) [2, 6]: 37.1 ± 7.6 µg/mL (≈ 25.6 µM)
- Brain concentrations of Van [3]: 11 nM and 11 ± 2 nM
- percentage of S. aureus intracellular survival ([4]; HEK293 infected 25:1 for 2 h, lysostaphin 20 U/ml 30 min, compound 25 µM for 24 h, CFU/ml of lysates vs non-treated cells, triplicates, Fig. 2): ~95%
- intracellular MRSA killed (bacterial killing rate) ([4]; MRSA-infected HEK293 cells, 25 µM, 24 h): 5%
